Results taken from patent publication US10611778B2, “Fused bicyclic inhibitors of menin-MLL interaction” (Janssen Pharmaceutica NV, priority 2016, dated 2020).

Tests used:
[1] = target: T1, Menin/MLL (terbium chelate-labeled menin, FITC-MBM1 peptide) (Homo sapiens, UniProt O00255, T541A); assay: Menin/MLL homogenous time-resolved fluorescence (HTRF) assay; type: binding; settings: averaged values over all measurements; read-out: Menin HTRF assay (IC50)
T1 construct: Menin (a.a. 1-610-6×his tag) was labeled with terbium cryptate as follows
T1 sequence (O00255 with tags, fused parts or gaps T541A): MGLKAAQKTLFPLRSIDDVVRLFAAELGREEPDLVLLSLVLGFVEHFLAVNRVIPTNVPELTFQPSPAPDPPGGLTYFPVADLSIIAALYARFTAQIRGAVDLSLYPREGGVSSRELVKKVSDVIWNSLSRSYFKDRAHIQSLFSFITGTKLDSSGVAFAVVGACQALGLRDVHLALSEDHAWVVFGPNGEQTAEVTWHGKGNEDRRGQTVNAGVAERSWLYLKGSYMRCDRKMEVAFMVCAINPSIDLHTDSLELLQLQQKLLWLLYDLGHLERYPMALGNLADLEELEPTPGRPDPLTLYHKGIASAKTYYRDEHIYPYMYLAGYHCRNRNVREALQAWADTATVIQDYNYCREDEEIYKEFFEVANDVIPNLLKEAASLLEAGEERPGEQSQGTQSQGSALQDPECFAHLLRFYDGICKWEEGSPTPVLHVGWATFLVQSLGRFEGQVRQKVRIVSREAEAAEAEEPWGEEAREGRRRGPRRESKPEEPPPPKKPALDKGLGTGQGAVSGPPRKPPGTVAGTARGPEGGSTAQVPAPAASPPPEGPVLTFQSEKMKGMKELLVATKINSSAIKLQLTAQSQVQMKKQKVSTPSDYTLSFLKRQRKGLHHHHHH
Outline: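 Compound preincubated 5 min with terbium-cryptate-labeled menin (aa 1-610, His-tagged; 100 pM final), then 75 nM FITC-MBM1 peptide added, 15 min at ambient temperature; 0.5% DMSO, Tris pH 7.5 buffer. HTRF ratio 520/490 nm; % inhibition vs saturating competitor, IC50 from 11-point three-fold titration from 31 μM.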

MV-4-11 = assay: Proliferation assay (spheroid assay) MV-4-11; type: cell-based, human; settings: Homo sapiens, MV4-11, MV-4-11; averaged values over all measurements; read-out: Spheroid assay MV-4-11 (IC50)
Outline: (§1)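 Cells were grown as spheroids in ultra-low attachment round-bottom wells with compound (0.3% DMSO) for 8 d at 37 °C, imaged every 4 h, with confluence as spheroid size. AUC of confluence versus time (t=0 baseline) was expressed as % of DMSO control, and absolute IC50 came from a least-squares nonlinear fit.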

MOLM14 = assay: Proliferation assay (spheroid assay) MOLM14; type: cell-based, human; settings: Homo sapiens, MOLM-14, MOLM14; averaged values over all measurements; read-out: Spheroid assay MOLM14 (IC50)
Outline: as §1

KG1 = assay: Proliferation assay (spheroid assay) KG1 control cell line; type: cell-based; settings: Homo sapiens, KG-1, averaged values over all measurements
Experimental: (§2) The anti-proliferative effect of menin/MLL protein/protein interaction inhibitor test compounds was assessed in human leukemia cell lines. The cell lines MV-4-11 and MOLM14 harbor MLL translocations and express the MLL fusion proteins MLL-AF4 and MLL-AF9, respectively, as well as the wildtype protein from the second allele. […] K562 and KG1 were used as a control cell lines containing two MLL wildtype alleles in order to exclude compounds that display general cytotoxic effects.
(§3) MV-4-11 and MOLM14 were cultured in RPMI-1640 (Sigma Aldrich) supplemented with 10% fetal bovine serum (HyClone), 2 mM L-glutamine (Sigma Aldrich) and 50 μg/ml gentamycin (Gibco). K562 were propagated in RPMI-1640 (Sigma Aldrich) supplemented with 20% fetal bovine serum (HyClone), 2 mM L-glutamine (Sigma Aldrich) and 50 μg/ml gentamycin (Gibco). KG1 were cultured in Iscove's MDM (Gibco) supplemented with 20% fetal bovine serum (HyClone), 2 mM L-glutamine (Sigma Aldrich) and 50 μg/ml gentamycin (Gibco).
(§4) In order to assess the anti-proliferative effects, 1,500 MV-4-11, 300 MOLM14, 750 K562 or 1,300 KG1 cells were seeded in 200 μl media per well in 96-well round bottom, ultra-low attachment plates (Costar, catalogue number 7007). Cell seeding numbers were chosen based on growth curves to ensure linear growth throughout the experiment. Test compounds were added at different concentrations and the DMSO content was normalized to 0.3%. Cells were incubated for 8 d at 37° C. and 5% CO2. Spheroid like growth was monitored in real-time by live-cell imaging (IncuCyteZOOM, Essenbio, 4× objective) acquiring one image every four hours for 8 d. Confluence (%) as a measure of spheroid size was determined using an integrated analysis tool.
(§5) In order to determine the cumulative effect of the test compounds over time, the area under the curve (AUC) in a plot of confluence against time was calculated. Confluence at the beginning of the experiment (t=0) was used as baseline for the AUC calculation.
(§6) Absolute IC50 values were calculated according to the following procedure: % Control=(AUC sample/AUC control)*100
(§7) AUC control=mean AUC of control values (cells without compound/DMSO as vehicle control)
(§8) A non-linear curve fit was applied using the least squares (ordinary) fit method to the plot of % control versus compound concentration. Based on this, the absolute IC50 value (half maximal inhibitory concentration of the test compound causing an anti-proliferative effect of 50% relative to the vehicle control) was calculated.

K562 = assay: Proliferation assay (spheroid assay) K562 control cell line; type: cell-based; settings: Homo sapiens; K562 control cell line; averaged values over all measurements; read-out: Spheroid assay K562 (IC50)
Experimental: as §2, §3, §4, §5, §6, §7, §8

Structure (SMILES)	melting point [°C]	IC50 [1] [nM]	IC50 (MV-4-11) [nM]	IC50 (MOLM14) [nM]	IC50 (KG1) [nM]	IC50 (K562) [nM]
O=C([C@@H]1CC2(CC2)CN1)N1CC[C@H]2CN(c3ncnc4sc(CC(F)(F)F)cc34)C[C@H]2C1 (single isomer, unassigned) [Compound 82]	105	653	7900	–	–	–
FC(F)(F)Cc1cc2c(N3C[C@H]4CCN(CC5CCOCC5)C[C@H]4C3)ncnc2s1 (single isomer, unassigned) [Compound 70]	160	18	560	1400	> 15000	> 15000
CC(C)CN1CC[C@H]2CN(c3ncnc4sc(CC(F)(F)F)cc34)C[C@H]2C1 (single isomer, unassigned) [Compound 69]	109	57	1800	–	–	–
O=C([C@@H]1CC2(CC2)CN1)N1CC[C@@H]2CN(c3ncnc4sc(CC(F)(F)F)cc34)C[C@@H]2C1 (single isomer, unassigned) [Compound 81]	112	410	5700	–	–	–
FC(F)(F)Cc1cc2c(N3C[C@H]4CCN(Cc5ccccc5)C[C@H]43)ncnc2s1 (single isomer, unassigned) [Compound 31]	150	1080	–	–	–	–
